One assay deals with Botrtyis cinerea (Bc). Briefly: Growth inhibition assay of fungal pathogens, Bc. As to conditions: 48 h, Botrtyis cinerea, read-out: Concentration at 90% Inhibition Bc. It counts as cell-based. The gist of the method: (§1)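 Inhibition percentages reflect 48 h OD600 and visual scores relative to a 2% DMSO control. Test concentrations were 50, 10, 2 ppm or 2, 0.4, 0.08 ppm final, applied to spores in 17% V8 medium.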

The subject of the next assay is Rhizoctonia solani (Rs). Nature of the assay: Growth inhibition assay of fungal pathogens, Rs. The format is cell-based. As to conditions: 48 h, mycelial plugs, read-out: Concentration at 90% Inhibition Rs.
In assay [1] the test system is Fusarium virguliforme (Fv). Nature of the assay: Growth inhibition assay of fungal pathogens, Fv. The conditions noted are these: 48 h, read-out: Concentration at 90% Inhibition Fv. The format is cell-based. The gist of the method:
as §1

The next assay relates to C. krusei. Nature of the assay: Antifungal Activity Assay (broth microtiter MIC), C. krusei. The format is cell-based, Candida krusei. As to conditions: Pichia kudriavzevii, ATCC6258, 48 h, ATCC 6258, 3 replicates, MIC recorded at 48 h, read-out: MIC, C. krusei ATCC 6258. The gist of the method: (§2)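 Colonies from 24 h Sabouraud dextrose agar plates (35° C) are suspended in RPMI 1640+MOPS and diluted to give 2.5×10^3 CFU/mL in the wells. Plates are set up per CLSI M27-A3. Visual MIC is recorded at 48 h.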

Assay [2] relates to Fusarium moniliforme (Fm). Briefly: Growth inhibition assay of fungal pathogens, Fm. It counts as cell-based. The conditions noted are these: Fusarium verticillioides, 48 h, Fusarium moniliforme, read-out: Concentration at 90% Inhibition Fm. The gist of the method:
as §1

The subject of another assay is C. albicans. Briefly: Antifungal Activity Assay (broth microtiter MIC), C. albicans. The format is cell-based, Candida albicans. The conditions noted are these: Candida albicans, ATCC90028, 48 h, ATCC 90028, 3 replicates, MIC recorded at 48 h, read-out: MIC, C. albicans ATCC 90028. The gist of the method: as §2
For another assay, the system named is C. parapsilosis. Nature of the assay: Antifungal Activity Assay (broth microtiter MIC), C. parapsilosis. As to conditions: Lodderomyces parapsilosis, ATCC22019, 48 h, ATCC 22019, 3 replicates, MIC recorded at 48 h, read-out: MIC, C. parapsilosis ATCC 22019. The format is cell-based, Candida parapsilosis. In outline: as §2
For assay [3], the system named is Collectotrichum graminicola (Cg). Nature of the assay: Growth inhibition assay of fungal pathogens, Cg. The format is cell-based. The conditions noted are these: 48 h, Collectotrichum graminicola, read-out: Concentration at 90% Inhibition Cg. The gist of the method: as §1
The next assay deals with Diplodia maydis (Dm). Nature of the assay: Growth inhibition assay of fungal pathogens, Dm. It counts as cell-based. As to conditions: Stenocarpella maydis, 48 h, Diplodia maydis, read-out: Concentration at 90% Inhibition Dm. The gist of the method: as §1
For a further assay, the target named is fungal (fACC2) (UniProt Q00955). The conditions noted are these: read-out: fACC2 (in vitro ACC2 Inhibition Assay, IC50), ADP-Glo, 5 nM ACC2, 20 μM ATP, 20 μM acetyl-CoA.
Sequence of fungal (fACC2) (Q00955 whole entry): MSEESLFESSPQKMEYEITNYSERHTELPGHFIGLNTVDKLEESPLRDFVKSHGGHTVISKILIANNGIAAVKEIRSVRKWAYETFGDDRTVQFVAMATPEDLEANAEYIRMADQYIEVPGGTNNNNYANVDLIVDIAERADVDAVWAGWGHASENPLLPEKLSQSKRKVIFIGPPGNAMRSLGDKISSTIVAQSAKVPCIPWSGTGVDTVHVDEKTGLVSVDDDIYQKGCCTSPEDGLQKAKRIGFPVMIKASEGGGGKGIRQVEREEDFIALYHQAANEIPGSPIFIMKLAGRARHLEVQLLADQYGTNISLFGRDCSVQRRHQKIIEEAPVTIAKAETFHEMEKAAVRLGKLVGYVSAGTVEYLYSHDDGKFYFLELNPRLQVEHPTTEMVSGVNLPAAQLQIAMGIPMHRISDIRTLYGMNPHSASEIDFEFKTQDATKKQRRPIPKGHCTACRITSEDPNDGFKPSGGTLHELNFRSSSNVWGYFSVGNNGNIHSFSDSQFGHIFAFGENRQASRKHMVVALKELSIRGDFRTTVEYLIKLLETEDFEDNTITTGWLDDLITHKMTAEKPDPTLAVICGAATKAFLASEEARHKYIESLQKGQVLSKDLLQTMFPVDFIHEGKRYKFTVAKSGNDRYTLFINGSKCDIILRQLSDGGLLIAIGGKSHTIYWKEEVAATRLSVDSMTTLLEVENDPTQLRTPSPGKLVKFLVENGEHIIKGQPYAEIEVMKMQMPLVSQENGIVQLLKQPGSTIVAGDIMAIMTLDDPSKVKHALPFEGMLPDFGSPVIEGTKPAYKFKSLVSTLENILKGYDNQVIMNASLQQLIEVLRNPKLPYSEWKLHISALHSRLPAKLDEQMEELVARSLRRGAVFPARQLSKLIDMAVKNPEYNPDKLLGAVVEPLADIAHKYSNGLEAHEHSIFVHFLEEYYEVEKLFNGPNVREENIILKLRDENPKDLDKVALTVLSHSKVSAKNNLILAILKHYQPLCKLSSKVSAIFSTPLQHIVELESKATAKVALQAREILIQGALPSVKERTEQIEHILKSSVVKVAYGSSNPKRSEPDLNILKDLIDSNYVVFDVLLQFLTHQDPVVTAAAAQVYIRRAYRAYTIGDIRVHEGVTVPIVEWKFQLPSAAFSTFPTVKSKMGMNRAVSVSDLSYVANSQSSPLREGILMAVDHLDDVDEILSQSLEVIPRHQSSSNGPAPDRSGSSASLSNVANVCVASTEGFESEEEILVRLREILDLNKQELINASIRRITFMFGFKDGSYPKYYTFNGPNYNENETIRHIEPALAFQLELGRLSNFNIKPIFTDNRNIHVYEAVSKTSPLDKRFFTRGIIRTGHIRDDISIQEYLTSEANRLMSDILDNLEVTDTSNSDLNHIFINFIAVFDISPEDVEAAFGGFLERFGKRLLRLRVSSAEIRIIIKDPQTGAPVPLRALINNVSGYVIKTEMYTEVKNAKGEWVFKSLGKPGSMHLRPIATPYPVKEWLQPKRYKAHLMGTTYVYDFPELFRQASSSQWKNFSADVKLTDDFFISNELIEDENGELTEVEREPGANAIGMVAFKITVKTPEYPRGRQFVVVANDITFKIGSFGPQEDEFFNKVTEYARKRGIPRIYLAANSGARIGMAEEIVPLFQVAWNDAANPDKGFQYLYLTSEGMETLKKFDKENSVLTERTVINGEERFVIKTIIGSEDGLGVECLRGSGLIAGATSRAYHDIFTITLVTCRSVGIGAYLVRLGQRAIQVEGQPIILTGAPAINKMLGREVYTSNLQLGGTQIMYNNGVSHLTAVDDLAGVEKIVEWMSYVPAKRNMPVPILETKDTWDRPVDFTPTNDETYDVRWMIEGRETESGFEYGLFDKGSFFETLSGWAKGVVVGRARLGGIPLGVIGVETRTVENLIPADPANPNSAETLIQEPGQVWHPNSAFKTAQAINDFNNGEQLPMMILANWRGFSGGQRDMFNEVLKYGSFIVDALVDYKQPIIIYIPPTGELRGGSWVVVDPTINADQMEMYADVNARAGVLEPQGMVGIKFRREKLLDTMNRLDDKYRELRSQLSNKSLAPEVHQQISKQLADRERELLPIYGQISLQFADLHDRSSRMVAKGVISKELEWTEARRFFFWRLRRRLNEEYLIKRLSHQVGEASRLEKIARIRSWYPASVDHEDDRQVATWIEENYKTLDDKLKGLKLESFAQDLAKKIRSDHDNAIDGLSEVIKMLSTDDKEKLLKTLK
The test system of another assay is Septoria tritici (St). Briefly: Growth inhibition assay of fungal pathogens, St. It counts as cell-based. The conditions noted are these: Zymoseptoria tritici, 48 h, Septoria tritici, read-out: Concentration at 90% Inhibition St. In outline:
as §1

[4] abbreviates: growth inhibition at 48 hours vs 2% DMSO control.
Where [5] appears, read: growth inhibition vs 2% DMSO control at 48 hours.

The structures appear in SMILES notation. ≈ marks a conversion by molar mass, not a printed value. Where two headings read alike, the source gives them in different places.

Take `Cc1c(-n2nccn2)sc2c1c(=O)n(C(C)(C)C(=O)NC(C)C)c(=O)n2C[C@H](OC(C)C)c1cc(F)ccc1OCCO` [Compound I-53, (R)-2-(1-(2-(5-fluoro-2-(2-hydroxyethoxy)phenyl)-2-isopropoxyethyl)-5-methyl-2,4-dioxo-6-(2H-1,2,3-triazol-2-yl)-1,4-dihydrothieno[2,3-d]pyrimidin-3(2H)-yl)-N-isopropyl-2-methylpropanamide]: the IC90 in the assay on Botrtyis cinerea (Bc) (setting [4]) is 0.4 µg/mL (≈ 0.649 µM); in the assay on Botrtyis cinerea (Bc) (setting [5]) it was 0.4 µg/mL (≈ 0.649 µM); in the assay on Rhizoctonia solani (Rs) (setting [4]), 0.08 µg/mL (≈ 0.13 µM); in the assay with Rhizoctonia solani (Rs) (setting [5]) it was 0.08 µg/mL (≈ 0.13 µM); in [1] (setting [4]), 0.4 µg/mL (≈ 0.649 µM); in [1] (setting [5]) it was 0.4 µg/mL (≈ 0.649 µM). In addition, the IC90 was 0.08 µg/mL (≈ 0.13 µM) in assay [2] (setting [4]); 0.08 µg/mL (≈ 0.13 µM) in [2] (setting [5]); 0.4 µg/mL (≈ 0.649 µM) in [3] (setting [4]); 0.4 µg/mL (≈ 0.649 µM) in assay [3] (setting [5]); 0.4 µg/mL (≈ 0.649 µM) in the assay with Diplodia maydis (Dm) (setting [4]); 0.4 µg/mL (≈ 0.649 µM) in the assay with Diplodia maydis (Dm) (setting [5]). The IC90 in the assay on Septoria tritici (St) (setting [4]) and in the assay with Septoria tritici (St) (setting [5]) was greater than 50 µg/mL in each case. The MIC in the assay on C. krusei (Table 3a) lay within 0.25 to 1 µg/mL (≈ 0.405 to 1.62 µM); in the assay with C. krusei (Table 3b (additional results)), 0.06 to 0.249 µg/mL (≈ 0.0973 to 0.404 µM); with C. albicans (Table 3a) it was 0.25 to 1 µg/mL (≈ 0.405 to 1.62 µM); with C. albicans (Table 3b (additional results)), 0.25 to 1 µg/mL (≈ 0.405 to 1.62 µM); with C. parapsilosis (Table 3a) it was 0.25 to 1 µg/mL (≈ 0.405 to 1.62 µM); with C. parapsilosis (Table 3b (additional results)) it was 1.01 to 2 µg/mL (≈ 1.64 to 3.24 µM). The 50% inhibitory concentration (IC50) fell in the range of 1 to 5 nM at fungal (fACC2) (Table 2a) and 1 to 5 nM on fungal (fACC2) (Table 2b, additional results).
For `COCCOc1ccc(F)cc1[C@H](Cn1c(=O)n(C(C)(C)C(=O)NC(C)C)c(=O)c2c(C)c(-n3nccn3)sc21)OC(C)C` [Compound I-54, (R)-2-(1-(2-(5-fluoro-2-(2-methoxyethoxy)phenyl)-2-isopropoxyethyl)-5-methyl-2,4-dioxo-6-(2H-1,2,3-triazol-2-yl)-1,4-dihydrothieno[2,3-d]pyrimidin-3(2H)-yl)-N-isopropyl-2-methylpropanamide], the IC90 (with Botrtyis cinerea (Bc) (setting [4]); in the assay with Botrtyis cinerea (Bc) (setting [5]); in the assay with Rhizoctonia solani (Rs) (setting [4]); in the assay on Rhizoctonia solani (Rs) (setting [5]); in assay [1] (setting [4]); in assay [1] (setting [5])) was 0.4 µg/mL (≈ 0.634 µM) in each case. Also, the IC90 was found to be 0.08 µg/mL (≈ 0.127 µM) in assay [2] (setting [4]); 0.08 µg/mL (≈ 0.127 µM) in assay [2] (setting [5]); 0.4 µg/mL (≈ 0.634 µM) in assay [3] (setting [4]); 0.4 µg/mL (≈ 0.634 µM) in [3] (setting [5]); 0.08 µg/mL (≈ 0.127 µM) in the assay on Diplodia maydis (Dm) (setting [4]); 0.08 µg/mL (≈ 0.127 µM) in the assay with Diplodia maydis (Dm) (setting [5]). Also, the IC90 in the assay with Septoria tritici (St) (setting [4]) and in the assay with Septoria tritici (St) (setting [5]) was greater than 50 µg/mL throughout. Moreover, the MIC with C. krusei (Table 3a) lay in the range of 0.25 to 1 µg/mL (≈ 0.396 to 1.59 µM); in the assay with C. krusei (Table 3b (additional results)), 0.25 to 1 µg/mL (≈ 0.396 to 1.59 µM); with C. albicans (Table 3a), 0.25 to 1 µg/mL (≈ 0.396 to 1.59 µM); in the assay on C. albicans (Table 3b (additional results)), 0.25 to 1 µg/mL (≈ 0.396 to 1.59 µM); in the assay on C. parapsilosis (Table 3a), 0.25 to 1 µg/mL (≈ 0.396 to 1.59 µM); with C. parapsilosis (Table 3b (additional results)), 1.01 to 2 µg/mL (≈ 1.6 to 3.17 µM). The IC50 at fungal (fACC2) (Table 2a) lay within 1 to 5 nM; at fungal (fACC2) (Table 2b, additional results), 1 to 5 nM.
As to `Cc1c(-n2nccn2)sc2c1c(=O)n(C(C)(C)C(=O)NC(C)C)c(=O)n2C[C@H](OC(C)C)c1cc(F)ccc1OCC1COC1` [Compound I-55, (R)-2-(1-(2-(5-fluoro-2-(oxetan-3-ylmethoxy)phenyl)-2-isopropoxyethyl)-5-methyl-2,4-dioxo-6-(2H-1,2,3-triazol-2-yl)-1,4-dihydrothieno[2,3-d]pyrimidin-3(2H)-yl)-N-isopropyl-2-methylpropanamide], the IC90 (in the assay with Botrtyis cinerea (Bc) (setting [4]); in the assay on Botrtyis cinerea (Bc) (setting [5]); with Rhizoctonia solani (Rs) (setting [4]); with Rhizoctonia solani (Rs) (setting [5]); in assay [1] (setting [4]); in [1] (setting [5])) was 0.4 µg/mL (≈ 0.622 µM) each time. For the same compound, the IC90 turned out to be 0.08 µg/mL (≈ 0.124 µM) in assay [2] (setting [4]); 0.08 µg/mL (≈ 0.124 µM) in [2] (setting [5]); 0.4 µg/mL (≈ 0.622 µM) in assay [3] (setting [4]); 0.4 µg/mL (≈ 0.622 µM) in assay [3] (setting [5]); 0.4 µg/mL (≈ 0.622 µM) in the assay with Diplodia maydis (Dm) (setting [4]); 0.4 µg/mL (≈ 0.622 µM) in the assay on Diplodia maydis (Dm) (setting [5]). Also, the IC90 in the assay on Septoria tritici (St) (setting [4]) and in the assay on Septoria tritici (St) (setting [5]) was greater than 50 µg/mL throughout. Moreover, the MIC in the assay with C. krusei (Table 3a) was 0.25 to 1 µg/mL (≈ 0.389 to 1.56 µM); in the assay with C. krusei (Table 3b (additional results)), 1.01 to 2 µg/mL (≈ 1.57 to 3.11 µM); in the assay on C. albicans (Table 3a), 0.25 to 1 µg/mL (≈ 0.389 to 1.56 µM); in the assay on C. albicans (Table 3b (additional results)), 1.01 to 2 µg/mL (≈ 1.57 to 3.11 µM); in the assay with C. parapsilosis (Table 3a), 0.25 to 1 µg/mL (≈ 0.389 to 1.56 µM); with C. parapsilosis (Table 3b (additional results)), 1.01 to 2 µg/mL (≈ 1.57 to 3.11 µM). In addition, the IC50 at fungal (fACC2) (Table 2a) is 1 to 5 nM; on fungal (fACC2) (Table 2b, additional results) it was 1 to 5 nM.

The record behind these values is patent US10800791B2, “Triazole ACC inhibitors and uses thereof” (Gilead Apollo, LLC, priority 2015, dated 2020).
